Data taken from patent publication US12560591B2, “Methods of treatment with CD8 T cell-mediated immune therapy” (Providence Health & Services—Oregon, priority 2019, dated 2026).

Test system: CXCR3^+CD8^+ T cells in the tumor microenvironment
Test: Clinical trial NCT02688712: immunofluorescence of rectal tumor biopsies, baseline vs day 15
Assay type: in vivo, human
Conditions: rectal cancer patient biopsies, baseline vs day 15, FIG. 12D-E
Source text: FIGS. 12A-12E are a series of panels showing TGFβ-mediated suppression of CXCR3-dependent CD8^+ T cell chemotaxis is relieved by LY2157299 in human patients with rectal cancer. […] FIG. 12B illustrates the clinical trial schema for a phase II clinical trial of rectal cancer patients and sample collection intervals. Patients receive two cycles of LY2157299 on days 1-14 and again on days 30-43 while receiving standard of care chemoradiation on days 15-57 prior to surgery. […] Patients are grouped by nodal status following neoadjuvant treatment (ypN). On the right, percent change in frequency of CXCR3^+CD3^+CD4^− T cells between days 1 and 15 is shown versus the neoadjuvant rectal (NAR) score. […] Each patient is shown (thin gray lines) along with the mean of all patients (thick black line). […]
To determine the clinical relevance of our data, the expression of CXCR3 in human patients was interrogated. […] Therefore, the CD4^+ T cell panel was used and back gated on CD45^+CD3^+CD4^− T cells, the majority of which are CD8^+ T cells (on average 65% of CD45^+CD3^+CD4^− cells were CD8^+ T cells using the T effector and memory panel which has CD45, CD3, CD4, and CD8, but not CXCR3), and calculated CXCR3 expression. […] Therefore, forceps-biopsy specimens obtained by proctoscopy at baseline and day 15 were evaluated for alterations in CXCR3^+CD8^+ T cells.

Cc1cccc(-c2nn3c(c2-c2ccnc4ccc(C(N)=O)cc24)CCC3)n1 [LY2157299]
percentage CXCR3^+CD8^+ T cells in the tumor microenvironment: increase in the percentage CXCR3^+CD8^+ T cells
